This note sets out measurements from patent US20260022142A1, “MACROCYCLIC IMMUNOMODULATORS” (Bristol-Myers Squibb Company, priority 2022, published 2026).

Bridge positions count the residues as written; N and C are the ends. Square brackets hold non-standard residues; d marks the D form. Peptide text beside a SMILES is read from it. * marks the point of attachment. ξ: configuration not given here. Bip = N[C@@H](Cc1ccc(-c2ccccc2)cc1)C(=O)O; Phe(3-Me) = Cc1cccc(C[C@H](N)C(=O)O)c1; Val(3-OH) = CC(C)(O)[C@H](N)C(=O)O; Cha = N[C@@H](CC1CCCCC1)C(=O)O; Thr(3ξ) = CC(O)[C@H](N)C(=O)O; NMeNle = CCCC[C@H](NC)C(=O)O; 12Ado = NCCCCCCCCCCCC(=O)O; Carboxymethyl = O=C(O)C*; Orn = NCCC[C@H](N)C(=O)O; Aun = NCCCCCCCCCCC(=O)O; Dab = NCC[C@H](N)C(=O)O

The target of this experiment is T1, PD-1/PD-L1 interaction (PE-labeled human PD-L1-Ig binding to Jurkat cell line over-expressing human PD-1) (Homo sapiens, UniProt Q15116).
T1 construct: expressed in transfected cells; host or cells: Jurkat
T1 sequence (Q15116 25-288): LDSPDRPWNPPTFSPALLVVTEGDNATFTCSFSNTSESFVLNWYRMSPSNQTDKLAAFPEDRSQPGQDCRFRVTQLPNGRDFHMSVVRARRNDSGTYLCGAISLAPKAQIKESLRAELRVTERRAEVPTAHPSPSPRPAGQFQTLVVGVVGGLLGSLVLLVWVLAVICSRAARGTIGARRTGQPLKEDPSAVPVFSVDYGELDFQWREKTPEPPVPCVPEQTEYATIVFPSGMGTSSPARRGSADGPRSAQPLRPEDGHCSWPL
As to the kind of experiment: Jurkat-PD-1 Cell Binding High-Content Screening Assay (CBA). The class given is cell-based. Conditions: Jurkat cell line over-expressing human PD-1; PE-labeled PD-L1-Ig 20 nM final; read-out: Jurkat hPD1-PDL1 IC50. The essentials:
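Jurkat cells over-expressing human PD-1 (8×10^3 per well, DMEM/10% FCS) preincubated with compound 2 h at 37° C, then PE-labeled human PD-L1-Ig (20 nM final) added for 1 h. Cells fixed with paraformaldehyde, Hoechst-stained, and bound fluorescence quantified by high-content imaging.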
Consider `CC(=O)NCCCC[C@@H]1NC(=O)[C@H](Cc2ccc(-c3ccccc3)cc2)NC(=O)[C@H](Cc2ccc(O)cc2)NC(=O)[C@H](Cc2cccc(C)c2)NC(=O)[C@H](CC(=O)O)NC(=O)[C@H](Cc2ccc(OCC(=O)O)cc2)NC(=O)[C@H](CCN)NC(=O)CSC[C@@H](C(=O)N[C@@H](CCN)C(=O)N[C@@H](CO)C(=O)NCCCCCCCCCCCC(=O)O)NC(=O)[C@H](CO)NC(=O)[C@H](CCCCN)NC(=O)[C@H](CC2CCCCC2)NC(=O)[C@H](CCN)NC(=O)[C@@H](CC(C)C)NC(=O)[C@H](CCCN)NC1=O` [Compound 3627] ({CH2CO}-[Dab]Y(Carboxymethyl)D[Phe(3-Me)]Y[Bip]K(Ac)[Orn][dL][Dab][Cha]KSC[Dab]S[12Ado]-OH; thioether N-14), for which the IC50 (usually the concentration that gives 50% inhibition) turned out to be 36.7 nM. For the compound `Cc1cccc(C[C@@H]2NC(=O)[C@H](CC(=O)O)NC(=O)[C@H](Cc3ccc(OCC(=O)O)cc3)NC(=O)[C@H](Cc3ccccc3)NC(=O)CSC[C@@H](C(=O)N[C@@H](CCN)C(=O)NCCCCCCCCCCC(=O)O)NC(=O)[C@H](CO)NC(=O)[C@H](C(C)(C)O)NC(=O)[C@H](CC3CCCCC3)NC(=O)[C@H](CCN)NC(=O)[C@@H](CC(C)C)NC(=O)[C@H](CCCN)NC(=O)[C@H](Cc3ccc(OCC(=O)O)cc3)NC(=O)[C@H](Cc3ccc(-c4ccccc4)cc3)NC(=O)[C@H](Cc3ccc(OCC(=O)O)cc3)NC2=O)c1` [Compound 3628] ({CH2CO}-FY(Carboxymethyl)D[Phe(3-Me)]Y(Carboxymethyl)[Bip]Y(Carboxymethyl)[Orn][dL][Dab][Cha][Val(3-OH)]SC[Dab][Aun]-OH; thioether N-14), the IC50 was 23 nM.

Regarding `Cc1cccc(C[C@@H]2NC(=O)[C@H](CC(=O)O)NC(=O)[C@H](Cc3ccc(OCC(=O)O)cc3)NC(=O)[C@H](CCN)NC(=O)CSC[C@@H](C(=O)N[C@@H](CCN)C(=O)NCCCCCCCCCCC(=O)O)NC(=O)[C@H](CO)NC(=O)[C@H](C(C)(C)O)NC(=O)[C@H](CC3CCCCC3)NC(=O)[C@H](CCN)NC(=O)[C@@H](CC(C)C)NC(=O)[C@H](CCCN)NC(=O)[C@H](Cc3ccc(OCC(=O)O)cc3)NC(=O)[C@H](Cc3ccc(-c4ccccc4)cc3)NC(=O)[C@H](Cc3ccc(OCC(=O)O)cc3)NC2=O)c1` [Compound 3629] ({CH2CO}-[Dab]Y(Carboxymethyl)D[Phe(3-Me)]Y(Carboxymethyl)[Bip]Y(Carboxymethyl)[Orn][dL][Dab][Cha][Val(3-OH)]SC[Dab][Aun]-OH; thioether N-14), the IC50 stood at 8.4 nM. Then `Cc1cccc(C[C@@H]2NC(=O)[C@H](CC(=O)O)NC(=O)[C@H](Cc3ccc(OCC(=O)O)cc3)NC(=O)[C@H](CCN)NC(=O)CSC[C@@H](C(=O)N[C@@H](CCN)C(=O)NCCCCCCCCCCC(=O)O)NC(=O)[C@H](CO)NC(=O)[C@H](C(C)O)NC(=O)[C@H](CC3CCCCC3)NC(=O)[C@H](CCN)NC(=O)[C@@H](CC(C)C)NC(=O)[C@H](CCCN)NC(=O)[C@H](Cc3ccc(OCC(=O)O)cc3)NC(=O)[C@H](Cc3ccc(-c4ccccc4)cc3)NC(=O)[C@H](Cc3ccc(OCC(=O)O)cc3)NC2=O)c1` (stereo partly drawn) [Compound 3630] ({CH2CO}-[Dab]Y(Carboxymethyl)D[Phe(3-Me)]Y(Carboxymethyl)[Bip]Y(Carboxymethyl)[Orn][dL][Dab][Cha][Thr(3ξ)]SC[Dab][Aun]-OH; thioether N-14), with 6.7 nM; and `Cc1cccc(C[C@@H]2NC(=O)[C@H](CC(=O)O)NC(=O)[C@H](Cc3ccc(OCC(=O)O)cc3)NC(=O)[C@H](CCN)NC(=O)CSC[C@@H](C(=O)N[C@@H](CCN)C(=O)NCCCCCCCCCCC(=O)O)NC(=O)[C@H](CO)NC(=O)[C@H](CCCCN)NC(=O)[C@H](CC3CCCCC3)NC(=O)[C@H](CCN)NC(=O)[C@@H](CC(C)C)NC(=O)[C@H](CCCN)NC(=O)[C@H](Cc3ccc(OCC(=O)O)cc3)NC(=O)[C@H](Cc3ccc(-c4ccccc4)cc3)NC(=O)[C@H](Cc3ccc(OCC(=O)O)cc3)NC2=O)c1` [Compound 3631] ({CH2CO}-[Dab]Y(Carboxymethyl)D[Phe(3-Me)]Y(Carboxymethyl)[Bip]Y(Carboxymethyl)[Orn][dL][Dab][Cha]KSC[Dab][Aun]-OH; thioether N-14), with 16 nM; and `Cc1cccc(C[C@@H]2NC(=O)[C@H](CC(=O)O)NC(=O)[C@H](Cc3ccc(OCC(=O)O)cc3)NC(=O)[C@H](CCN)NC(=O)CSC[C@@H](C(=O)N[C@@H](CCN)C(=O)NCCCCCCCCCCC(=O)O)NC(=O)[C@H](CO)NC(=O)[C@H](Cc3cnc[nH]3)NC(=O)[C@H](CC3CCCCC3)NC(=O)[C@H](CCN)NC(=O)[C@@H](CC(C)C)NC(=O)[C@H](CCCN)NC(=O)[C@H](Cc3ccc(OCC(=O)O)cc3)NC(=O)[C@H](Cc3ccc(-c4ccccc4)cc3)NC(=O)[C@H](Cc3ccc(OCC(=O)O)cc3)NC2=O)c1` [Compound 3632] ({CH2CO}-[Dab]Y(Carboxymethyl)D[Phe(3-Me)]Y(Carboxymethyl)[Bip]Y(Carboxymethyl)[Orn][dL][Dab][Cha]HSC[Dab][Aun]-OH; thioether N-14), with 8.7 nM. Then `Cc1cccc(C[C@@H]2NC(=O)[C@H](CC(=O)O)NC(=O)[C@H](Cc3ccc(OCC(=O)O)cc3)NC(=O)[C@H](CCN)NC(=O)CSC[C@@H](C(=O)N[C@@H](CCN)C(=O)NCCCCCCCCCCC(=O)O)NC(=O)[C@H](Cc3cnc[nH]3)NC(=O)[C@H](C(C)O)NC(=O)[C@H](CC3CCCCC3)NC(=O)[C@H](CCN)NC(=O)[C@@H](CC(C)C)NC(=O)[C@H](CCCN)NC(=O)[C@H](Cc3ccc(OCC(=O)O)cc3)NC(=O)[C@H](Cc3ccc(-c4ccccc4)cc3)NC(=O)[C@H](Cc3ccc(OCC(=O)O)cc3)NC2=O)c1` (stereo partly drawn) [Compound 3633] ({CH2CO}-[Dab]Y(Carboxymethyl)D[Phe(3-Me)]Y(Carboxymethyl)[Bip]Y(Carboxymethyl)[Orn][dL][Dab][Cha][Thr(3ξ)]HC[Dab][Aun]-OH; thioether N-14), with 8.6 nM; and `Cc1cccc(C[C@@H]2NC(=O)[C@H](CC(=O)O)NC(=O)[C@H](Cc3ccc(OCC(=O)O)cc3)NC(=O)[C@H](CCN)NC(=O)CSC[C@@H](C(=O)N[C@@H](CCN)C(=O)NCCCCCCCCCCC(=O)O)NC(=O)[C@H](CCCN)NC(=O)[C@H](C(C)(C)O)NC(=O)[C@H](CC3CCCCC3)NC(=O)[C@H](CCN)NC(=O)[C@@H](CC(C)C)NC(=O)[C@H](CCCN)NC(=O)[C@H](Cc3ccc(OCC(=O)O)cc3)NC(=O)[C@H](Cc3ccc(-c4ccccc4)cc3)NC(=O)[C@H](Cc3ccc(OCC(=O)O)cc3)NC2=O)c1` [Compound 3634] ({CH2CO}-[Dab]Y(Carboxymethyl)D[Phe(3-Me)]Y(Carboxymethyl)[Bip]Y(Carboxymethyl)[Orn][dL][Dab][Cha][Val(3-OH)][Orn]C[Dab][Aun]-OH; thioether N-14), with 6.3 nM; and `CCCC[C@H]1C(=O)N[C@@H](Cc2ccc(OCC(=O)O)cc2)C(=O)N[C@@H](CC(=O)O)C(=O)N[C@@H](Cc2cccc(C)c2)C(=O)N[C@@H](Cc2ccc(OCC(=O)O)cc2)C(=O)N[C@@H](Cc2ccc(-c3ccccc3)cc2)C(=O)N[C@@H](Cc2ccc(OCC(=O)O)cc2)C(=O)N[C@@H](CCCN)C(=O)N[C@H](CC(C)C)C(=O)N[C@@H](CCN)C(=O)N[C@@H](CC2CCCCC2)C(=O)N[C@@H](C(C)(C)O)C(=O)N[C@@H](CO)C(=O)N[C@H](C(=O)N[C@@H](CCN)C(=O)NCCCCCCCCCCC(=O)O)CSCC(=O)N1C` [Compound 3635] ({CH2CO}-[NMeNle]Y(Carboxymethyl)D[Phe(3-Me)]Y(Carboxymethyl)[Bip]Y(Carboxymethyl)[Orn][dL][Dab][Cha][Val(3-OH)]SC[Dab][Aun]-OH; thioether N-14), with 34.9 nM.
